Results as given in patent US20230392124A1, “METHODS AND COMPOSITIONS FOR IMPROVING SC-BETA CELLS OR ENHANCING THEIR UTILITY” (Washington University, priority 2020, published 2023).

Legend:
Assay type in all cases: cell-based, human
[1] = system: SC-β cells; experiment: Refining stage 6 ESFM: components on top of base media, GSIS stimulation index; conditions: in ESFM, 20 mM; by increasing insulin secretion at low glucose
Protocol: Base Media • MCDB131 • 10% BSA • Glutamax • P/S • Glucose • Zn 10 μM
Treatment on Top of Base Media • 1-Trace A 1:1000 • 2-Trace B 1:1000 • 3-Trace C 1:1000 • 4-Heparin 10 μg/mL • 5-NEAA 1:100 • 6-Vitamin C 250 μM • 7-NaHCO320 mM • 8-Defined Lipid Mixture 1:1000 • 9-Defined Lipid Mixture 1:1000 • 10-Base • 11-S6 w/water dilution 1:100 • 12-S6 no water dilution
All samples had same total dilution of 1:100 with water to maintain same osmolarity amongst samples.

[2] = system: SC beta cell differentiation; experiment: Other modifications to the differentiation protocol, differentiation markers; conditions: for PDX1/NKX61 co expression: treatment during S4
Description: (§1) Other Modifications with Benefits (See e.g., FIG. 90-FIG. 95). • Y and Blebbistatin treatment during stage 4 of differentiation • Reducing volume of media • Wnt modification—IWP2 treatment during s1d2-d4 • bFGF treatment during stage 1 • Betacellulin removal during S5 • Other compound treatments during Stage 6

[3] = system: INS-mCherry+ cells; experiment: mCherry/INS reporter cell line, β cell health
Description: Stage 6 INS+/−mcherry SC-islets can be single cell dispersed, sorted for INS+ SC-β cells, and treated with a SERCA pump inhibitor (thapsigargin) to reduce insulin secretion for high throughput drug screening.

[4] = system: WS4^unedit stage 6 cells; experiment: ER stress study: thapsigargin treatment, static GSIS, real-time PCR and western blot
Protocol: (§2) For static GSIS, approximately 30 stage 6 clusters were placed in transwells (Corning), equilibrated for 1 hr in 2 mM glucose KRB (TABLE 6), and challenged with sequential 1-hr 2 and 20 mM KRB treatments. For dynamic GSIS, clusters were loaded into a cell chamber, perfused with buffer at 100 μL/min, and equilibrated in 2 mM glucose KRB for 90 min. The samples were then challenged for 12 min at 2 mM, 24 min at 20 mM, and 12 min at 2 mM glucose KRB, collecting effluent every 2-4 min. Human insulin was quantified with ELISA and data normalized to cell counts from Vi-Cell XR or DNA quantification using Quant-iT Picogreen dsDNA assay kit (Invitrogen).
(§3) Detection of phosphorylated and total eIF2α as performed by lysing cells in 1% Triton buffer (20 mM HEPES, pH 7.5, 150 mM NaCl, 1% Triton X-100, 10% glycerol (Sigma), 1 mM EDTA, 10 mM tetrasodium pyrophosphate (Sigma), 17.5 mM β-glycerophosphate (Sigma), PhosSTOP (Roche), and complete protease inhibitor cocktail (Roche). Detection of all other proteins was done by lysing cells in M-PER Mammalian Protein Extraction Reagent (Thermo Scientific) supplemented with cOmplete protease inhibitor cocktail. After 30 min incubation on ice, samples were centrifuged, supernatants collected, and protein-equivalent samples were loaded onto 4-20% Mini-PROTEAN TGX Precast Protein Gels (Bio-Rad) and transferred to an Immobilon-P PVDF Membrane (Millipore). The membrane was treated with 5% skimmed milk for 1 hr at RT and probed with the primary antibodies. The antibodies were detected using HRP-linked secondary antibodies. The density of each band was quantified using Image Lab software (Bio-Rad).
(§4) RNA was extracted with the RNeasy Mini Kit (Qiagen) with DNase treatment (Qiagen), cDNA was synthesized with the High Capacity cDNA Reverse Transcriptase Kit (Applied Biosystems using a thermocycler (Applied Biosystems), real-time PCR reactions were generated with PowerUp SYBR Green Master Mix (Applied Biosystems) using a StepOnePlus (Applied Biosystems), and data analyzed using ΔΔCt methodology. TBP and GUSB were used as normalization genes. Primer sequences used can be found in TABLE 8.
(§5) Cells were incubated for 48 hr with 10 μM Thapsigargin (EMD Chemicals), 30 mM glucose, or a cytokine mix including 500 ng/mL IFNγ (R&D Systems), 500 ng/mL TNFα (R&D Systems), and 100 ng/mL […] (R&D Systems).

[5] = system: WS4^corr stage 6 cells; experiment: as above
Protocol: as §2, §3, §4, §5

[6] = system: stem cells in SC-β cell protocol; experiment: Cytoskeletal modulating compounds added for first 24 hours of stages of the SC-β cell protocol, gene expression; conditions: added during stage 1, read at S2d1
Protocol: Small molecules that influence the state of the cytoskeleton were added for first 24 hours of various stages of the SC-β cell protocol.

[7] = system: SC-beta cells; experiment: Compound treatments during Stage 6 (s6d1-7), insulin secretion; conditions: treatment during s6d1-7
Description: as §1

[8] = system: Stage 6 SC-Beta cells; experiment: Compounds to improve SC-beta cells: 7 day culture, qPCR of 10 genes; conditions: 1 μg/mL, 6 days, qPCR vs Control 1
Protocol: Cultured 14 wells of 6-well plates containing Stage 6 SC-Beta cells differentiated in suspension by Punn. Two wells served as controls.
Each well was cultured in one of the following for 7 days*: • […] IFN Gamma • […] TNF Alpha • […] IL-1 Beta • Mixture of the above cytokines • 10% FBS • 10, 1, and 0.1 μM A83-01 • 10, 1, and 0.1 μM Alk5i Ill • 1 μg/mL Lefty A (*cultured for 6 days)
Ran qPCR and compared everything to Control 1 (had smallest Ct SD).

[9] = 10 μM Thapsigargin, 48 hr, static GSIS, WS4^corr stage 6 cells

O=C([O-])O.[Na+] [NAHCO3]
stimulation index (GSIS) [1]: reduces stimulation index

C[C@@H](N)[C@H]1CC[C@H](C(=O)Nc2ccncc2)CC1 [Y]
PDX1/NKX61 co expression [2]: Improves

C/C=C(/C)C(=O)O[C@H]1C(C)=C2[C@H]([C@@H]1OC(=O)CCCCCCC)[C@@](C)(OC(C)=O)C[C@H](OC(=O)CCC)[C@@]1(O)[C@H]2OC(=O)[C@@]1(C)O [thapsigargin]
De-differentiation signatures [3]: De-differentiation signatures occur
mCherry fluorescence (insulin expression) [3]: reduces mCherry fluorescence
insulin secretion ([4]; 10 μM Thapsigargin, 48 hr, static GSIS, WS4^unedit stage 6 cells): not affected
known stress markers ([4]; real-time PCR and western blot, bulk stage 6 population, WS4^unedit cells): increasing known stress markers
decrease of insulin secretion [5, 9]: 3.9±0.7 ×
glucose-responsiveness [5, 9]: eliminating glucose-responsiveness
known stress markers ([5]; real-time PCR and western blot, bulk stage 6 population, WS4^corr cells): increasing known stress markers

Cc1ccc2c(c1)C(=O)C1(O)CCN(c3ccccc3)C1=N2 (stereo not drawn) [Blebbistatin]
PDX1/NKX61 co expression [2]: Improves

CCCCCCCCCCCCC/C=C/[C@@H](O)[C@@H](N)COP(=O)(O)O [s1p]
expression of the mesoderm marker Brachyury T [6]: greatly increases

Cc1ccc2nc(NC(=O)CSc3nc4c(c(=O)n3-c3ccccc3)SCC4)sc2c1 [IWP2]
PDX1 yield at S3 ([2]; during Sd2-d4): promotes

C=C1[C@@H](C)[C@H]2[C@H](Cc3ccccc3)NC(=O)[C@]23[C@H](OC(C)=O)/C=C/[C@@](C)(O)C(=O)[C@@H](C)C/C=C/[C@H]3[C@@H]1O [CytoD]
insulin secretion [7]: increases

bFGF: growth factor added during stage 1
differentiation ([2]; treatment during Stage 1): improves differentiation

OC[C@H]1OC(O)[C@H](O)[C@@H](O)[C@@H]1O (stereo partly drawn) [High Glucoses]
insulin secretion [7]: increases

B1: Lefty A: factor added to stage 6 culture at 1 μg/mL (protein, UniProt O00292 77-366, looked up)
Left-right determination …: RFSQSFREVAGRFLASEASTHLLVFGMEQRLPPNSELVQAVLRLFQEPVPKAALHRHGRLSPRSAQARVTVEWLRVRDDGSNRTSLIDSRLVSVHESGWKAFDVTEAVNFWQQLSRPRQPLLLQVSVQREHLGPLASGAHKLVRFASQGAPAGLGEPQLELHTLDLRDYGAQGDCDPEAPMTEGTRCCRQEMYIDLQGMKWAKNWVLEPPGFLAYECVGTCQQPPEALAFNWPFLGPRQCIASETASLPMIVSIKEGGRTRPQVVSLPNMRVQKCSCASDGALVPRRLQP
NKX6-1 expression [8]: slightly decreased
genes with increased expression (IAPP, SIX2, CHGA, SIX3, G6PC2, MAF B) [8]: 6/10

B2: BC: Betacellulin, stage 5 factor (protein, UniProt P35070 32-111, looked up)
Betacellulin: DGNSTRSPETNGLLCGDPEENCAATTTQSKRKGHFSRCPKQYKHYCIKGRCRFVVAEQTPSCVCDEGYIGARCERVDLFY
modifications: Betacellulin
notes: Betacellulin, stage 5 factor
requirement for Beta cell induction ([2]; removal during S5): not required
